# Data from PMC9412861, “Understanding the pH Dependence of Supersaturation State—A Case Study of Telmisartan” (Pharmaceutics, 2022).
# Key:
# Type in all cases: physicochemical
# [1] = 1H NMR/pH titration (pKa determination); conditions: 5 v/v % D2O-95 v/v % H2O, NMR-pH titration, 25 °C, I = 0.15 M
# Procedure: All NMR measurements were performed on a Varian 600 MHz spectrometer (Varian Inc., Palo Alto, CA, USA) with a dual 5 mm inverse-detection gradient probehead at 25 °C, constant ionic strength (I = 0.15 M) and using 5 v/v % D2O–95 v/v % H2O as solvent. The spectra were referenced to internal DSS (sodium 3-(trimethylsilyl)-1-propanesulfonate) as chemical shift reference. The pH of the samples (600 μL)were adjusted with concentrated HCl and NaOH and determined by in situ internal indicator molecules optimized for NMR [39, 40]. The concentration of telmisartan was below 1 mM during in the titration solution, due to its poor solubility, but all the peaks were still clearly visible. The water resonance was diminished by a double pulse field gradient spin echo sequence (number of transients = 16, number of points = 16,384, acquisition time = 3.33 s, relaxation delay = 1.5 s).
# In order to obtain the acid dissociation constants from the chemical shifts–pH profiles, the software Origin Pro 8 (OriginLab Corp., Northampton, MA, USA) was used to perform non-linear regression with the following function:(2) δobs(pH)=δX^−+∑i=1nδHiX^i−1×10^logβi−i×pH/1+∑i=1n10^logβi−i×pH where δX^- is the chemical shift of the unprotonated ligand (X^−), δHiX^i-1 values stand for the chemical shifts of successively protonated species of X^−, n is the maximum number of protons that can bind to the unprotonated ligand, β is the cumulative macroconstant. The standard deviations of logβ values from the regression analyses were used to calculate the Gaussian propagation of uncertainty for the other equilibrium constants.
# [2] = Analysis of solubility-pH data with pDISOL-X; conditions: from thermodynamic solubility-pH data in distilled water
# Text: For the analysis of solubility-pH profile, the pDISOL-X^TM program (in-ADME Research, NY, USA) was used. The mathematical approach used in the program for log S-pH simulation-refinement has been described by Völgyi et al.. The program has been applied in several other recent studies.
# [3] = XRD characterization of solid phase isolated from solubility suspension; conditions: solid phase from solubility measurement, Prisma HT buffer
# Procedure: X-ray powder diffraction (XRD) measurements were performed by X’pert Pro MPD X-ray diffractometer (PANalytical B.v., Armelo, The Netherlands).
# [4] = UV/pH titration in aqueous medium (pKa determination); conditions: for pKa: aqueous 0.15 M KCl solution, UV/pH titration in aqueous medium, I = 0.15 M KCl; for predominant protonated macrospecies: calculated from pKa values at 37 °C
# Procedure: The pKa values of telmisartan were determined by UV-pH titration using the D-PAS™ ultra-violet spectrophotometer attached to a GLpKa instrument (Sirius Analytical Instruments Ltd., Forest Row, UK). First, a stock solution of TEL was prepared in methanol (2 mg/mL). […] Spectra were registered in the 200–700 nm region. The pKa values were calculated by RefinementPro^TM software (Sirius Analytical Instruments Ltd., Forest Row, UK).
# [5] = UV/pH titration in MeOH-water mixtures with Yasuda–Shedlovsky extrapolation; conditions: methanol-water mixtures, UV/pH titration in MeOH-water mixture, 25 °C, aqueous value by Yasuda–Shedlovsky extrapolation
# Procedure: The cosolvent dissociation constants (psKa values) were determined in various MeOH-water mixtures between 8–34% (w/w) under the same experimental conditions as in aqueous medium. The aqueous pKa values were calculated from the measured psKa values in methanol-water solutions using the Yasuda–Shedlovsky extrapolation method. The Yasuda–Shedlovsky procedure is based on the linear relation between psKa and the dielectric constant (ε) of the cosolvent mixture:(1) psKa+log[H2O]=a/ε+b where ε is the dielectric constant, and log[H2O] is the molar water concentration of the given methanol-water mixture.
# [6] = Thermodynamic (equilibrium) solubility, saturation shake-flask, in distilled water
# Procedure: (§1) The methods for thermodynamic solubility measurements can be found in Baka et al. (measured amount of TEL: 1 mg/mL, 37 °C, 6 h strirring, 18 h sedimentation). During the thermodynamic solubility measurements in Prisma buffers the concentration of the API was determined without filtering the solutions by the Rainbow Dynamic Dissolution Monitor instrument (Pion Inc., Billerica, MA, USA). In the case of solubility measurements in distilled water, the concentration of the API after filtration with PVDF membrane (0.22 µm) was determined by Jasco V-550 UV–vis spectrophotometer (Jasco Inc., Easton, MD, USA).
# [7] = Thermodynamic (equilibrium) solubility, saturation shake-flask, in Prisma HT buffer; conditions: thermodynamic from solid
# Procedure: as §1
# [8] = read-out: pKa1 ± SD (Carboxyl Group)
# [9] = read-out: pKa2 ± SD (Middle Benzimidazole Ring)
# [10] = read-out: pKa3 ± SD (Terminal Benzimidazole Ring)
smiles,measurement,setting,value
"CCCc1nc2c(C)cc(-c3nc4ccccc4n3C)cc2n1Cc1ccc(-c2ccccc2C(=O)O)cc1 [Telmisartan, telmisartan]",pKa,[1]; [8],3.21 ± 0.14
same,pKa,[1]; [9],4.28 ± 0.07
same,pKa,[1]; [10],6.08 ± 0.04
same,dimerization constant logK21,[2],6.48 ± 0.19
same,dimerization constant logK22,[2],6.35 ± 0.47
same,solubility,"[2]; thermodynamic from solid, read-out: calculated intrinsic solubility logS0 (converted)",0.302 µM
same,XRD Characterization,[3]; pH 1.60,Crystalline
same,XRD Characterization,[3]; pH 2.15,Crystalline
same,XRD Characterization,[3]; pH 2.50,Crystalline
same,XRD Characterization,[3]; pH 3.08,Crystalline
same,XRD Characterization,[3]; pH 3.82,Crystalline
same,XRD Characterization,[3]; pH 6.50,Crystalline
same,XRD Characterization,[3]; pH 7.88,Crystalline
same,XRD Characterization,[3]; pH 9.40,amorphous background
same,XRD Characterization,[3]; pH 9.79,amorphous background
same,XRD Characterization,[3]; pH 11.74,Amorphous
same,pKa,"[4]; 25 °C, read-out: pKa1 ± SD (Carboxyl Group)",3.03 ± 0.04
same,pKa,"[4]; 25 °C, read-out: pKa2 ± SD (Middle Benzimidazole Ring)",4.22 ± 0.09
same,pKa,"[4]; 25 °C, read-out: pKa3 ± SD (Terminal Benzimidazole Ring)",6.08 ± 0.07
same,pKa,"[4]; 37 °C, read-out: pKa1 ± SD (Carboxyl Group)",3.04 ± 0.03
same,pKa,"[4]; 37 °C, read-out: pKa2 ± SD (Middle Benzimidazole Ring)",4.08 ± 0.02
same,pKa,"[4]; 37 °C, read-out: pKa3 ± SD (Terminal Benzimidazole Ring)",5.91 ± 0.05
same,predominant protonated macrospecies,[4]; gastric pH (pH 1–2),dication (XH3^2+)
same,predominant protonated macrospecies,[4]; intestinal pH (pH 5–6.5),monoprotonated (XH) and the unprotonated anionic (X^−)
same,predominant protonated macrospecies,[4]; pH of plasma (pH 7.4),anionic (X^−)
same,pKa,[5]; [8],3.03 ± 0.06
same,pKa,[5]; [9],4.19 ± 0.07
same,pKa,[5]; [10],6.14 ± 0.1
same,solubility thermodynamic at 6 h,"[6]; pH 2.66, 37 °C, read-out: Equilibrium solubility S ± SD",10.8 ± 0.53 µg/mL
same,solubility thermodynamic at 6 h,"[6]; pH 2.66, 37 °C, read-out: Equilibrium solubility logS ± SD (converted)",20.9 µM
same,solubility thermodynamic at 6 h,"[6]; thermodynamic from solid, pH 2.16, 37 °C, read-out: Equilibrium solubility S ± SD",148 ± 5.48 µg/mL
same,solubility thermodynamic at 6 h,"[6]; thermodynamic from solid, pH 2.16, 37 °C, read-out: Equilibrium solubility logS ± SD (converted)",288 µM
same,solubility thermodynamic at 6 h,"[6]; thermodynamic from solid, pH 3.08, 37 °C, read-out: Equilibrium solubility S ± SD",3.4 ± 0.49 µg/mL
same,solubility thermodynamic at 6 h,"[6]; thermodynamic from solid, pH 3.08, 37 °C, read-out: Equilibrium solubility logS ± SD (converted)",6.61 µM
same,solubility thermodynamic at 6 h,"[6]; thermodynamic from solid, pH 3.98, 37 °C, read-out: Equilibrium solubility S ± SD",0.36 ± 0.12 µg/mL
same,solubility thermodynamic at 6 h,"[6]; thermodynamic from solid, pH 3.98, 37 °C, read-out: Equilibrium solubility logS ± SD (converted)",0.692 µM
same,solubility thermodynamic at 6 h,"[6]; thermodynamic from solid, pH 7.22, 37 °C, read-out: Equilibrium solubility S ± SD",3.65 ± 0.11 µg/mL
same,solubility thermodynamic at 6 h,"[6]; thermodynamic from solid, pH 7.22, 37 °C, read-out: Equilibrium solubility logS ± SD (converted)",7.08 µM
same,solubility thermodynamic at 6 h,"[6]; thermodynamic from solid, pH 7.4, 37 °C, read-out: Equilibrium solubility S ± SD",13.8 ± 2.81 µg/mL
same,solubility thermodynamic at 6 h,"[6]; thermodynamic from solid, pH 7.4, 37 °C, read-out: Equilibrium solubility logS ± SD (converted)",26.9 µM
same,solubility thermodynamic at 6 h,"[7]; aqueous buffer, pH 2.15, 37 °C, read-out: Equilibrium solubility S ± SD",119 ± 11.8 µg/mL
same,solubility thermodynamic at 6 h,"[7]; aqueous buffer, pH 2.15, 37 °C, read-out: Equilibrium solubility logS ± SD (converted)",229 µM
same,solubility thermodynamic at 6 h,"[7]; aqueous buffer, pH 3.08, 37 °C, read-out: Equilibrium solubility S ± SD",13.1 ± 1.73 µg/mL
same,solubility thermodynamic at 6 h,"[7]; aqueous buffer, pH 3.08, 37 °C, read-out: Equilibrium solubility logS ± SD (converted)",25.1 µM
same,solubility thermodynamic at 6 h,"[7]; aqueous buffer, pH 3.82, 37 °C, read-out: Equilibrium solubility S ± SD",3.62 ± 0.59 µg/mL
same,solubility thermodynamic at 6 h,"[7]; aqueous buffer, pH 3.82, 37 °C, read-out: Equilibrium solubility logS ± SD (converted)",7.08 µM
same,solubility thermodynamic at 6 h,"[7]; aqueous buffer, pH 7.88, 37 °C, read-out: Equilibrium solubility S ± SD",11.5 ± 0.26 µg/mL
same,solubility thermodynamic at 6 h,"[7]; aqueous buffer, pH 7.88, 37 °C, read-out: Equilibrium solubility logS ± SD (converted)",22.4 µM
same,solubility thermodynamic at 6 h,"[7]; aqueous buffer, pH 9.00, 37 °C, read-out: Equilibrium solubility S ± SD",130 ± 2.73 µg/mL
same,solubility thermodynamic at 6 h,"[7]; aqueous buffer, pH 9.00, 37 °C, read-out: Equilibrium solubility logS ± SD (converted)",251 µM
same,solubility thermodynamic at 6 h,"[7]; aqueous buffer, pH 9.79, 37 °C, read-out: Equilibrium solubility S ± SD",1470 ± 255 µg/mL
same,solubility thermodynamic at 6 h,"[7]; aqueous buffer, pH 9.79, 37 °C, read-out: Equilibrium solubility logS ± SD (converted)",2880 µM
same,solubility thermodynamic at 6 h,"[7]; aqueous buffer, pH 11.74, 37 °C, read-out: Equilibrium solubility S ± SD",2250 ± 145 µg/mL
same,solubility thermodynamic at 6 h,"[7]; aqueous buffer, pH 11.74, 37 °C, read-out: Equilibrium solubility logS ± SD (converted)",4370 µM
same,solubility thermodynamic at 6 h,"[7]; pH 1.6, aqueous buffer, pH 1.60, 37 °C, read-out: Equilibrium solubility S ± SD",150 ± 38 µg/mL
same,solubility thermodynamic at 6 h,"[7]; pH 1.6, aqueous buffer, pH 1.60, 37 °C, read-out: Equilibrium solubility logS ± SD (converted)",288 µM
same,solubility thermodynamic at 6 h,"[7]; pH 2.5, aqueous buffer, pH 2.50, 37 °C, read-out: Equilibrium solubility S ± SD",17 ± 0.72 µg/mL
same,solubility thermodynamic at 6 h,"[7]; pH 2.5, aqueous buffer, pH 2.50, 37 °C, read-out: Equilibrium solubility logS ± SD (converted)",47.9 µM
same,solubility thermodynamic at 6 h,"[7]; pH 6.5, aqueous buffer, pH 6.50, 37 °C, read-out: Equilibrium solubility S ± SD",0.79 ± 0.16 µg/mL
same,solubility thermodynamic at 6 h,"[7]; pH 6.5, aqueous buffer, pH 6.50, 37 °C, read-out: Equilibrium solubility logS ± SD (converted)",1.58 µM
same,solubility thermodynamic at 6 h,"[7]; pH 9.4, aqueous buffer, pH 9.40, 37 °C, read-out: Equilibrium solubility S ± SD",275 ± 9.4 µg/mL
same,solubility thermodynamic at 6 h,"[7]; pH 9.4, aqueous buffer, pH 9.40, 37 °C, read-out: Equilibrium solubility logS ± SD (converted)",537 µM
